Assay results as given in patent EP4674425A1, “COMPOSITION FOR TREATING DIABETIC RETINOPATHY, COMPRISING PEPTIDE” (EyebioKorea, Inc., priority 2023, dated 2026).
Non-standard residues stand in square brackets, D forms with d. No end group written: not given here. Hyp = O=C(O)[C@@H]1C[C@@H](O)CN1; Aib = CC(C)(N)C(=O)O

Key:
[1] = system: db/db mouse model; assay: Electroretinography in db/db mouse model; type: in vivo, db/db mice; conditions: electroretinogram (ERG), Figure 4
Protocol: The drug was administered as eye drops (ED) to 12-week-old db/db mice twice a day (BID) or three times a day (TID) for about 12 weeks. In order to evaluate retinal function, the mice were dark-adapted for more than 12 hours before measuring electroretinogram (ERG), and then the mice were subjected to pupillary dilation and anesthetized, and electrodes were placed on the skin, tail, and cornea to measure ERG. The retina was stimulated with a single white light to obtain a response value, and the amplitude from the trough of the a wave to the peak of the b wave was measured, which was evaluated as an index of retinal function.

[2] = system: IL-1β; assay: Gene expression by microarray in zebrafish diabetic retinopathy model; type: in vivo, zebrafish Tg[flk:EGFP]; conditions: eyeball RNA, 4 days treatment with glucose and peptide, Figure 14
Protocol: (§1) Among the embryos obtained by mating adult zebrafish Tg[flk:EGFP], embryos expressing a fluorescent protein were selected and used. On the 6th day after fertilization, the embryos were treated with glucose and the peptide of the present invention (002-175) for 4 days, and then euthanized by adding 4 mg/ml of Tricane. The eyeballs were extracted, and RNA was extracted and analyzed using microarray. In addition, Trizol was added to the extracted eyeballs, and the tissue was homogenized to extract mRNA. The extracted mRNA was quantified using a NanoDrop spectrophotometer, and cDNA was synthesized using RNA with a purity of 1.8 or higher. The synthesized cDNA was subjected to polymerization reaction of SYBR Green Master Mix, primers, and genes, and the concentration of each gene was divided by GAPDH to obtain the corrected concentration of the gene.

[3] = system: MMP9; assay: as above; type: in vivo, zebrafish Tg[flk:EGFP]; conditions: eyeball RNA, 4 days treatment with glucose and peptide, Figure 14
Protocol: as §1

[4] = system: NF-kB; assay: as above; type: in vivo, zebrafish Tg[flk:EGFP]; conditions: eyeball RNA, 4 days treatment with glucose and peptide, Figure 14
Protocol: as §1

[5] = system: oxygen induced retinopathy (OIR) mouse model; assay: Inhibition of neovascularity in oxygen induced retinopathy mouse model (Isolectin B4 flat mount, fluorescence imaging); type: in vivo; conditions: eye drops (ED) for 5 days from day 12 to day 16 after birth; versus OIR model group; positive control aflibercept IVT once on day 12; Figures 1 and 2
Protocol: In order to evaluate the efficacy of the peptide of the present invention in inhibiting neovascularity in an oxygen induced retinopathy (OIR) mouse model, an experiment was performed as follows.
After stabilizing the mice born with the mother (new born mice) for about 3 to 4 days, they were raised under 75% hyperoxic conditions for 5 days from day 7 to day 11 after birth. Thereafter, they were raised under normoxic conditions until day 17 after birth. Drugs were administered while they were raised under normoxic conditions. The peptide of the present invention (002-175) was administered as eye drops (ED) for 5 days from day 12 to day 16 after birth, and as a positive control group, aflibercept was administered intraocularly (intravitreal injection, IVT) once on day 12 after birth. Thereafter, the mouse eyes were extracted, fixed in 10% formalin for 1 hour, and then flat mounted. The retina was divided into four equal parts centered on the optic nerve, and treated with Isolectin B4 (1 mM CaCl2, 1:200) overnight (O/N). Thereafter, they were spread on a slide glass, sprayed with mounting solution, covered with a cover glass, and photographed under a fluorescence microscope. The fluorescence images of blood vessels in the retina were obtained, and the number and area of new blood vessels and the area of blood vessels were calculated using the imageJ program.

[6] = system: COX-2; assay: Western blot of retinal tissue, db/db mouse model; type: in vivo, db/db mice; conditions: eye drops three times a day (TID) for about 12 weeks, versus db/db mouse group, Figure 10
Protocol: (§2) The drug was administered as eye drops (ED) to 12-week-old db/db mice twice a day (BID) or three times a day (TID) for about 12 weeks. In order to evaluate the expression level of proteins in the retina, retinal tissue was separated from the extracted mouse eyes and treated with RIPA solution to extract proteins in the retina. Western blot was performed to evaluate the expression level of factors related to neovascularization and vascular permeability in the retina.

[7] = system: vascular endothelial growth factor (VEGF); assay: Western blot of retinal tissue, db/db mouse model; type: in vivo, db/db mice; conditions: eye drops three times a day (TID) for about 12 weeks, versus db/db mouse group, Figure 8
Protocol: as §2

[8] = system: Akt; assay: Western blot of retinal tissue, db/db mouse model; type: in vivo, db/db mice; conditions: eye drops three times a day (TID) for about 12 weeks, versus db/db mouse group, Figure 9
Protocol: as §2

[9] = system: JNK; assay: Western blot of retinal tissue, db/db mouse model; type: in vivo, db/db mice; conditions: eye drops BID or TID for about 12 weeks, versus db/db mouse group, Figure 11
Protocol: as §2

[10] = system: zebrafish retinal blood vessels; assay: Inhibition of retinal vasodilation in zebrafish diabetic retinopathy model (fluorescence microscopy); type: in vivo, zebrafish Tg[flk:EGFP]; conditions: Figures 12 and 13
Protocol: Among the embryos obtained by mating adult zebrafish Tg[flk:EGFP], embryos expressing a fluorescent protein were selected and used. On the 6th day after fertilization, the embryos were treated with glucose and the peptide of the present invention (002-175) for 4 days, and then euthanized by adding 4 mg/ml of Tricane. After fixing with 4% paraformaldehyde for 3 days, the eyeballs were separated using 3% trypsin, and the changes in the blood vessels in the separated eyeballs were observed using a fluorescence microscope.

[11] = system: ZO-1; assay: Immunofluorescence (IF) staining of zebrafish eye, diabetic retinopathy model; type: in vivo; conditions: tight junction protein; versus high glucose group; Figures 16 and 17
Protocol: (§3) On the 6th day after fertilization (6dpf, 6 days post-fertilization), zebrafish fry were fixed with 4% paraformaldehyde for 3-4 hours, and then treated with 30% sucrose, and treated overnight at 4°C. O.C.T blocks were made, and sections were performed, and then TUNEL staining and immunofluorescence (IF) staining were performed.

[12] = system: GFAP; assay: as above; type: in vivo; conditions: outer nuclear layer (ONL) of the retina; versus high glucose group; Figures 16 and 17
Protocol: as §3

[13] = system: VEGF; assay: as above; type: in vivo; conditions: outer nuclear layer (ONL) of the retina; versus high glucose group; Figures 16 and 17
Protocol: as §3

[14] = system: IL-1β; assay: Gene expression by real-time PCR in zebrafish diabetic retinopathy model; type: in vivo, zebrafish Tg[flk:EGFP]; conditions: corrected by GAPDH, eyeball mRNA, Figure 15
Protocol: as §1

[15] = system: ikkα; assay: as above; type: in vivo, zebrafish Tg[flk:EGFP]; conditions: corrected by GAPDH, eyeball mRNA, Figure 15
Protocol: as §1

[16] = system: ikkγ; assay: as above; type: in vivo, zebrafish Tg[flk:EGFP]; conditions: corrected by GAPDH, eyeball mRNA, Figure 15
Protocol: as §1

[17] = system: MMP9; assay: as above; type: in vivo, zebrafish Tg[flk:EGFP]; conditions: corrected by GAPDH, eyeball mRNA, Figure 15
Protocol: as §1

[18] = system: ikkβ; assay: as above; type: in vivo, zebrafish Tg[flk:EGFP]; conditions: corrected by GAPDH, eyeball mRNA, Figure 15
Protocol: as §1

[19] = system: NF-kB; assay: as above; type: in vivo, zebrafish Tg[flk:EGFP]; conditions: corrected by GAPDH, eyeball mRNA, Figure 15
Protocol: as §1

[20] = system: TUNEL positive cells in the inner nuclear layer (INL) of the retina; assay: TUNEL assay in retinal tissue, zebrafish diabetic retinopathy model; type: in vivo; conditions: versus high glucose group, Figures 16 and 17
Protocol: as §3

[21] = system: Streptozotocin (STZ) induced diabetic retinopathy mouse model; assay: Electroretinography in streptozotocin induced diabetic retinopathy mouse model; type: in vivo, C57BL/6 mice; conditions: electroretinogram (ERG); eye drops (ED) twice a day for about 17 weeks; versus STZ model group; comparator aflibercept; Figure 3
Protocol: The streptozotocin induced mouse model is a type 1 diabetes mellitus model that induces diabetes mellitus by injecting the antibiotic streptozotocin (STZ) into the mouse's peritoneum to damage the beta cells that produce insulin in the pancreas. It is one of the models used in diabetic retinopathy research, and it is a model that can confirm the early stage of diabetic retinopathy from the time of onset of diabetes mellitus.
After fasting for 3-4 hours before administration, 8-week-old C57BL/6 mice were administered with streptozotocin (STZ) dissolved in Na-citrate buffer and buffer at a dose of 50 mg/kg intraperitoneally for 5 days. The drug used at this time was prepared immediately before administration and used quickly. One week after the last STZ intraperitoneal administration, blood glucose was measured, and only mice with blood glucose exceeding 250 mg/dL were determined to be diabetic mice and used in the experiment. The drug was administered as eye drops (ED) twice a day for about 17 weeks starting from the day after model production, and 10 µg was administered intraocularly (intravitreal injection, IVT) once a month. […] The retina was stimulated with a single white light to obtain a response value, and the amplitude from the trough of the a wave to the peak of the b wave was measured, which was evaluated as an index of retinal function.

[22] = system: pericytes; assay: Loss of pericytes in retinal blood vessels of db/db mice (elastase digest, PAS staining); type: in vivo; conditions: Figures 5 and 6
Text: In the early stage of nonproliferative diabetic retinopathy, blood flows into the tissue due to the loss of pericytes surrounding the capillaries, causing the macula to swell. Macular edema is a representative symptom of nonproliferative diabetic retinopathy in which the focus of objects becomes blurred, the field of vision darkens, and visual acuity temporarily decreases. Therefore, in order to evaluate the efficacy of the peptide of the present invention in inhibiting loss of pericytes, an experiment was performed as follows.
The drug was administered as eye drops (ED) to 12-week-old db/db mice twice a day (BID) or three times a day (TID) for about 12 weeks. In order to evaluate the state of blood vessels in the retina, the eyes of the extracted mice were fixed in 10% formalin for a week. Thereafter, the fixed eye tissue was treated with elastase to separate the retinal blood vessels and PAS staining was performed. The ratio of vascular endothelial cells and pericytes present in the blood vessel walls and the number of acellular blood vessels were quantified to evaluate the permeability of the blood vessels in the retina.

[23] = system: vascular endothelial growth factor (VEGF); assay: Western blot of retinal tissue, STZ induced diabetic retinopathy mouse model; type: in vivo, C57BL/6 mice; conditions: about 17 weeks of administration, versus STZ model group, Figure 7
Protocol: (§4) After fasting for 3-4 hours before administration, 8-week-old C57BL/6 mice were administered with streptozotocin (STZ) dissolved in Na-citrate buffer and buffer at a dose of 50 mg/kg intraperitoneally for 5 days. The drug used at this time was prepared immediately before administration and used quickly. One week after the last STZ intraperitoneal administration, blood glucose was measured, and only mice with blood glucose exceeding 250 mg/dL were determined to be diabetic mice and used in the experiment. The drug was administered as eye drops (ED) twice a day for about 17 weeks starting from the day after model production, and 10 µg was administered intraocularly (intravitreal injection, IVT) once a month. In order to evaluate the expression level of proteins in the retina, retinal tissue was separated from the extracted mouse eyes and treated with RIPA solution to extract proteins in the retina. Western blot was performed to evaluate the expression level of factors related to neovascularization and vascular permeability in the retina.

[24] = system: Akt; assay: as above; type: in vivo, C57BL/6 mice; conditions: about 17 weeks of administration, versus STZ model group, Figure 7
Protocol: as §4

[25] = eye drops (ED) BID or TID for about 12 weeks, versus db/db mouse group
[26] = eye drops three times a day (TID) for about 12 weeks

With [Hyp]GQE[Aib]LA [002-175] the “amplitude of the a wave and the b wave” value [1, 25] was “increase in the amplitude of the a wave and the b wave”, the “amplitude of the a wave and the b wave, effect of TID compared with BID” value [1, 26] was “more excellent effect compared to the group administered twice a day (BID)” and the “gene expression of IL-1β” value [2] was “decrease in the gene expression”. For the same substance, the “gene expression of MMP9” value [3] was “decrease in the gene expression”, the “gene expression of NF-kB” value [4] was “decrease in the gene expression” and the “area of new blood vessels” value [5] was “decrease in the area of new blood vessels to a level similar to that of the group administered with aflibercept”. The “expression of COX-2” value [6] was “decrease in the expression of COX-2”, the “expression of vascular endothelial growth factor (VEGF)” value [7] was “decrease in the expression of vascular endothelial growth factor” and the “phosphorylation level of Akt” value [8] was “decrease in the phosphorylation level of Akt”. The “phosphorylation level of JNK” value [9] was “decrease in the phosphorylation level of JNK”, the “diameter of retinal blood vessels” value ([10]; 100 µg/ml, 4 days, high glucose (130 mM glucose)) was “decrease in the diameter of retinal blood vessels to a level similar to that of the normal group” and the “diameter of retinal blood vessels” value ([10]; 200 µg/ml, 4 days, high glucose (130 mM glucose)) was “decrease in the diameter of retinal blood vessels to a level similar to that of the normal group”. The “diameter of retinal blood vessels” value ([10]; treated with glucose and peptide for 4 days from 6th day after fertilization, versus high glucose (130 mM glucose) group) was “decrease in the diameter of retinal blood vessels”, the “expression of ZO-1” value [11] was “increase in expression and a recovery pattern” and the “expression of GFAP” value [12] was “decrease in the expression of VEGF and GFAP”. For the same substance, the “expression of VEGF” value [13] was “decrease in the expression of VEGF and GFAP”, the “gene expression of IL-1β” value [14] was “decrease in the gene expression” and the “gene expression of ikkα” value [15] was “decrease in the gene expression”. For the same substance, the “gene expression of ikkγ” value [16] was “decrease in the gene expression”, the “gene expression of MMP9” value [17] was “decrease in the gene expression” and the “gene expression of ikkβ” value [18] was “decrease in the gene expression”. The “gene expression of NF-kB” value [19] was “decrease in the gene expression”, the TUNEL positive cells [20] was “decrease in TUNEL positive cells” and the “amplitude of the a wave and the b wave” value [21] was “increase in the amplitude of the a wave and the b wave to a level similar to that of the group administered with aflibercept”. For the same substance, the pericytes [22, 25] was “inhibition of the decrease in pericytes”, the “pericytes, effect of TID compared with BID” value [22, 26] was “more excellent effect compared to the group administered twice a day (BID)” and the “expression of vascular endothelial growth factor (VEGF)” value [23] was “decrease in the expression of vascular endothelial growth factor”. For the same substance, the “phosphorylation level of Akt” value [24] was “decrease in the phosphorylation level of Akt”.
